Columns and labels:
[1] = molecular target: T1, E. coli gyrase GyrA^D72N (Escherichia coli, UniProt P0AES4+P0AES6); type: biochemical; details: in words
T1 construct: alternative cryo-EM approach involving full-length E. coli gyrase; 10-His (cleaved yes); Twin-Strep (cleaved yes); made in house
Description: (§1) For DNA gyrase supercoiling assays to characterize gyrase mutants, 15 µl reactions were set up containing 250 ng of relaxed DNA, E. coli gyrase supercoiling buffer (35 mM Tris–Cl pH 7.5, 24 mM KCl, 4 mM MgCl2, 2 mM DTT, 1.8 mM spermidine, 1 mM ATP, 6.0% (w/v) glycerol, and 0.1 mg ml^−1 BSA), gyrase subunits and inhibitors. Concentrations of enzyme and inhibitor are stated in the figure legends. Inhibitors were diluted in the following way to reduce the chance of precipitation: stock compound in 100% DMSO was diluted to 5 mM in 100% DMSO. This compound solution was diluted to 1 mM by stepwise addition of 1 µl of 50% DMSO with thorough mixing via pipetting after each addition. All subsequent dilutions up to 100 µM were performed in the same way using H2O. After this point, compounds were stable and could be diluted in the normal way. Reactions were incubated at 37 °C for 30 min before stopping with 15 µl chloroform:isoamyl alcohol (24:1 v/v) and 15 µl of STEB (40% (w/v) sucrose, 100 mM Tris–Cl pH 8, 10 mM EDTA, 0.5 mg ml^−1 bromophenol blue).
Cleavage assays were set up in the same way as supercoiling assays with some modifications. The concentration of enzyme was increased 4-fold relative to the supercoiling assay and reactions were incubated for 1 h before addition of 0.2% SDS and proteinase K (0.2 mg ml^−1) and further incubation at 37 °C for 30 min to trap cleavage complexes. […]

[2] = molecular target: T2, E. coli gyrase GyrA^I74M (Escherichia coli, UniProt P0AES4+P0AES6, I74M); test: DNA gyrase cleavage assay (CC50, % cleaved DNA); type: biochemical; details: for % maximal cleavage: GyrAI74M, average of 3 independent assays; for EC50: GyrA^I74M, mean ± s.d. of triplicate; for % cleaved DNA Average: average of replicates
T2 construct: alternative cryo-EM approach involving full-length E. coli gyrase; 10-His (cleaved yes); Twin-Strep (cleaved yes); made in house
Description: as §1
Cleavage assays were set up in the same way as supercoiling assays with some modifications. The concentration of enzyme was increased 4-fold relative to the supercoiling assay and reactions were incubated for 1 h before addition of 0.2% SDS and proteinase K (0.2 mg ml^−1) and further incubation at 37 °C for 30 min to trap cleavage complexes. Reactions were stopped in the same way as supercoiling assays.
Results were visualized by agarose gel electrophoresis: 1% agarose Tris-acetate-EDTA (TAE) gels were run without ethidium bromide (supercoiling) or with 10 µg ml^−1 ethidium bromide (cleavage) at 8 V cm^−1.
DNA cleavage gels were analysed using densitometry (ImageJ). Experiments were carried out in triplicate and expressed as mean ± s.d. Curves were fitted using OriginPro 2021 (Origin Lab) according to a modified Hill equation:1 y=cI+(cF−cI)[…]/(k^n+x^n) where y is the percentage of cleaved DNA, cI is the initial cleavage, cF is the final cleavage, k is the CC50 (the concentration of inhibitor that results in cleavage of 50% of DNA), n is a slope factor and x is the inhibitor concentration.

[3] = type: physicochemical; details: 100 µM in Topo IV assays
Description: Supplementary Figure 11. Activity of albicidin and Albi-1/2/3 on E. coli topoisomerase IV. a. Plasmid relaxation activity of E. coli topo IV in the presence of albicidin, Albi-1, Albi-2 and Albi-3. First lane: negatively supercoiled pBR322; second lane: innate relaxation activity of E. coli topo IV (12.5 nM); third lane: effect of 20 µM CFX; subsequent lanes: effect of increasing compound concentration (0.1, 1, 10, 100 […]
higher concentration. b. Cleavage activity of E. coli topo IV in the presence of albicidin, Albi-1, Albi-2 and Albi-3. First lane: negatively supercoiled pBR322; second lane: innate cleavage activity of E. coli topo IV (15 nM); third lane: effect of 20 µM CFX; subsequent lanes: effect of increasing compound concentration (0.1, 1, 10, 100 µM). […]
concentration. All experiments were carried out in triplicates and representative gels […]
(1 picture or pasted object on this page, not shown here)

[4] = molecular target: T3, E. coli gyrase (Escherichia coli, UniProt P0AES4+P0AES6); test: Gyrase cleavage of linear DNA fragments (Mu217 and others); type: biochemical; details: 1 µM albicidin
T3 construct: alternative cryo-EM approach involving full-length E. coli gyrase; 10-His (cleaved yes); Twin-Strep (cleaved yes); made in house
Description: Mu217 DNA (25 nM) was incubated with 0.4 µM gyrase and indicated concentrations (1 or 10 µM) of diazirine-labelled albicidin (photo-Albi, φAlbi) in a volume of 20 µl (~70 ng DNA) at 37 °C for 30 min in gyrase cleavage buffer (see section 'Topoisomerase assays'). For CFX competition experiments, 30 µM CFX was added first, followed by the albicidin. Reactions were either irradiated with ultraviolet 365 nm (benchtop transilluminator) with cooling (ice) for 30 min or left on ice for 30 min (‘dark’). Then, 0.2% SDS and 0.2 mg ml^−1 proteinase K were added to both samples, which were incubated for another 30 min. Reactions were mixed with loading dye (STEB) and chloroform:isoamyl alcohol (24:1 v/v) before vortexing and centrifugation. The aqueous phase was loaded on 4–20% TBE (Tris–borate–EDTA) polyacrylamide gel (Thermo) and ran for 1 h at 150 V. DNA was visualized with SYBR Gold (Thermo) staining.
Extended Data Fig. 1 Length dependency of albicidin-mediated DNA cleavage. Position of cleaved DNA indicated by arrows and red dots. ATP and ADPNP were added as indicated, (----) stands for no nucleotide added. 20 nM gyrase, 1 µM albicidin and 25 nM DNA was used in each reaction.
Extended Data Fig. 5 Photocrosslinking of diazirine-labelled albicidin (photo-Albi) to the DNA. a. Structures of N-terminal photo-Albi and control compound. b. DNA cleavage assay with Mu217 fragment and indicated concentrations of compounds. The labelled DNA band appearing upon irradiation of a photo-compound when bound to the complex is marked by a yellow star. c. Ciprofloxacin competition experiment. Pre-incubation with excess CFX prevents albicidin binding and crosslinking. Details of the experiment are available in Methods section.

| Structure (SMILES) | resistance of the variant judged by the CC50 [1] | % maximal cleavage [2] [%] | EC50 [2] [µM] | solubility in assay [3] | cleavage of DNA fragments ([4]; fragments shorter than 150 bp or absence of a nucleotide) | cleavage of the 217 bp Mu SGS fragment (Mu217) ([4]; in the presence of ATP or ADPNP) | reduction in the maximal amount of cleavage ([2]; GyrA^I74M vs WT gyrase) | % cleaved DNA Average ([2]; albicidin 0.0025 µM) [%] | % cleaved DNA Average ([2]; albicidin 0.005 µM) [%] | % cleaved DNA Average ([2]; albicidin 0.01 µM) [%] | % cleaved DNA Average ([2]; albicidin 0.025 µM) [%] | % cleaved DNA Average ([2]; albicidin 0.05 µM) [%] | % cleaved DNA Average ([2]; albicidin 0.1 µM) [%] | % cleaved DNA Average ([2]; albicidin 0.25 µM) [%] | % cleaved DNA Average ([2]; albicidin 0.5 µM) [%] | % cleaved DNA Average ([2]; albicidin 1 µM) [%] |
| --- | --- | --- | --- | --- | --- | --- | --- | --- | --- | --- | --- | --- | --- | --- | --- | --- |
| CC(C)Oc1c(NC(=O)c2ccc(NC(=O)[C@H](Cc3c[nH]nn3)NC(=O)c3ccc(NC(=O)c4ccc(C#N)cc4)cn3)cn2)ccc(C(=O)Nc2ccc(C(=O)O)cc2)c1O [Albi-1] | did not show increased resistance | 79±5 | 0.03 ± 0.0027 | – | – | – | – | – | – | – | – | – | – | – | – | – |
| COc1c(NC(=O)c2ccc(NC(=O)c3ccc(NC(=O)[C@H](Cc4c[nH]nn4)NC(=O)c4ccc(NC(=O)c5ccc6nc(C)ccc6c5)cc4)cn3)c(OC)c2O)ccc(C(=O)O)c1O [Albi-3] | – | – | – | solubility issues | – | – | – | – | – | – | – | – | – | – | – | – |
| COc1c(NC(=O)c2ccc(NC(=O)c3ccc(NC(=O)[C@H](CC#N)NC(=O)c4ccc(NC(=O)/C(C)=C/c5ccc(O)cc5)cc4)cc3)c(OC)c2O)ccc(C(=O)O)c1O [Albicidin] | did not show increased resistance | 40±10 | 0.042 ± 0.0077 | – | almost no cleavage | strong cleavage | ~ 2 fold | 2.868 | 1.835 | 6.013 | 10.9112 | 19.5143 | 32.1987 | 36.304 | 39.8221 | 36.4081 |

Source: PMC9886550, “Molecular mechanism of topoisomerase poisoning by the peptide antibiotic albicidin” (Nature Catalysis, 2023)
